Consider 29 molecules from BindingDB's records for doi:10.1021/jm200866y (Merck Serono, 2011).

For orientation: IC50 means the concentration that gives 50% inhibition.

Assay [1] is described as follows: Inhibition of CRTH2-mediated chemotaxis of human eosinophils towards PGD2 after 30 mins by fluorescence counter.
A short description of assay [2]: Antagonist activity at CRTH2 in human blood cells assessed as inhibition of PGD2-induced eosinophil cell shape change after 10 mins by flow cytometry.

Molecule `O=C(O)COc1ccc(Cl)cc1C#Cc1ccccc1Cl` had an IC50 in assay [1] of 123 nM.

Turning to `O=C(O)COc1ccc(Cl)cc1C#Cc1cccc(Cl)c1`, the IC50 in assay [2] is 6900 nM.

Regarding `O=C(O)COc1ccc(Cl)cc1C#Cc1ccc(CO)cc1F`, the IC50 in assay [2] turned out to be 680 nM.

Consider `O=C(O)COc1ccc(Cl)cc1C#Cc1cccc(S(=O)(=O)CCO)c1`, for which, in assay [2], the IC50 is 990 nM.

`Cc1ccc(S(C)(=O)=O)cc1C#Cc1cc(Cl)ccc1OCC(=O)O`: the IC50 in assay [2] was 64 nM.

Regarding `CS(=O)(=O)c1ccc(F)c(C#Cc2cc(Cl)ccc2OCC(=O)O)c1`, the IC50 in assay [2] was found to be 95 nM.

Consider `CS(=O)(=O)c1ccc(Cl)c(C#Cc2cc(Cl)ccc2OCC(=O)O)c1`, for which the IC50 in assay [2] is 26 nM.

Regarding `CCCc1ccc(S(C)(=O)=O)cc1C#Cc1cc(Cl)ccc1OCC(=O)O`, the IC50 in assay [2] was determined as 1200 nM.

Regarding `CC(C)c1ccc(S(C)(=O)=O)cc1C#Cc1cc(Cl)ccc1OCC(=O)O`, the IC50 in assay [2] was 360 nM.

With `CCCS(=O)(=O)c1ccc(C)c(C#Cc2cc(Cl)ccc2OCC(=O)O)c1`, the IC50 in assay [2] worked out at 81 nM.

With `Cc1ccc(S(=O)(=O)C(C)C)cc1C#Cc1cc(Cl)ccc1OCC(=O)O`, the IC50 in assay [2] is 190 nM.

With `Cc1ccc(S(=O)(=O)CC(C)C)cc1C#Cc1cc(Cl)ccc1OCC(=O)O`, the IC50 in assay [2] worked out at 120 nM.

For `Cc1ccc(S(=O)(=O)c2ccccc2)cc1C#Cc1cc(Cl)ccc1OCC(=O)O`, the IC50 in assay [2] amounted to 260 nM.

On to `Cc1ccc(S(=O)(=O)CCCO)cc1C#Cc1cc(Cl)ccc1OCC(=O)O`, for which the IC50 in assay [2] was found to be 310 nM.

Regarding `CCCS(=O)(=O)c1ccc(F)c(C#Cc2cc(Cl)ccc2OCC(=O)O)c1`, the IC50 in assay [2] worked out at 23 nM.

With `CC(C)S(=O)(=O)c1ccc(F)c(C#Cc2cc(Cl)ccc2OCC(=O)O)c1`, the IC50 in assay [2] was 91 nM.

As for `CCCS(=O)(=O)c1ccc(Cl)c(C#Cc2cc(Cl)ccc2OCC(=O)O)c1`, the IC50 in assay [2] came out at 23 nM.

On to `CC(C)S(=O)(=O)c1ccc(Cl)c(C#Cc2cc(Cl)ccc2OCC(=O)O)c1`, for which the IC50 in assay [2] worked out at 67 nM.

For the molecule `Cc1ccc(S(=O)(=O)N(C)C)cc1C#Cc1cc(Cl)ccc1OCC(=O)O`, the IC50 in assay [2] came out at 23 nM.

On to `CCNS(=O)(=O)c1ccc(C)c(C#Cc2cc(Cl)ccc2OCC(=O)O)c1`, for which, in assay [2], the IC50 was 40 nM.

On to `Cc1ccc(S(=O)(=O)NC(C)C)cc1C#Cc1cc(Cl)ccc1OCC(=O)O`, for which the IC50 in assay [2] is 250 nM.

As to `Cc1ccc(S(=O)(=O)N(C)C(C)C)cc1C#Cc1cc(Cl)ccc1OCC(=O)O`, the IC50 in assay [2] came to 140 nM.

For the molecule `Cc1ccc(S(=O)(=O)N2CCCCC2C)cc1C#Cc1cc(Cl)ccc1OCC(=O)O` (centres undefined), in assay [2], the IC50 came out at 310 nM.

For `COCCN(C)S(=O)(=O)c1ccc(C)c(C#Cc2cc(Cl)ccc2OCC(=O)O)c1`, in assay [2], the IC50 came out at 77 nM.

On to `COCCNS(=O)(=O)c1ccc(C)c(C#Cc2cc(Cl)ccc2OCC(=O)O)c1`, for which the IC50 in assay [2] is 88 nM.

`CN(C)S(=O)(=O)c1cncc(C#Cc2cc(Cl)ccc2OCC(=O)O)c1`: the IC50 in assay [2] is 289 nM.

`O=C(O)COc1ccc(Cl)cc1C#Cc1ccc2c(c1)S(=O)(=O)c1ccccc1-2`: the IC50 in assay [2] worked out at 4300 nM.

Consider `CCCS(=O)(=O)c1cccc(C#Cc2cc(Cl)ccc2OCC(=O)O)c1`, for which, in assay [2], the IC50 amounted to 750 nM.

For the molecule `CCN(Cc1cc(-c2ccc(OC)cn2)ccc1-c1cc(CC(=O)O)ccc1OC)C(=O)C1CC1`, in assay [2], the IC50 turned out to be 3 nM.
